Inhibition data for one molecule are collected here from patent US20210008145A1, “EDICINE COMPOSITION FOR TREATMENT OF HUMAN PAPILLOMAVIRUS INFECTION AND PREPARATION METHOD THEREOF” (Jiangsu Zhengyang Pharmaceutical Co., Ltd., priority 2018, published 2021).

The subject of this test is HeLa cells. Description: MTT assay, inhibition of HeLa cell proliferation. The class given is cell-based. Conditions: Homo sapiens, crude drug 25 g/L (cidofovir 10 μmol/mL), read-out: inhibition percentage on HeLa cell proliferation. As for the experimental part: The percentage inhibition on HeLa cell proliferation for each compound prepared in Examples 1-7 was determined by MTT assay (MTT Cell Proliferation and Cytotoxicity Assay Kit). HeLa cells was cultured in a 96-well plate for 6.0×10^3 cells per well, and allowed to adhere to the surface of the 96-well plate. Serum-free medium was added to each well of control group. Cidofovir was diluted in purified water such that the final concentration of cidofovir in the assay was 10 μmol/mL, and the resulting solution was added to each well of positive control group. Each compound of Examples 1-7 was diluted in water to a crude drug concentration of 25 g/L, and the resulting solution was added to the 96-well plate for a final volume of 200 μL per well. 200 μL of complete medium was only added to each well of blank control group. Each experimental group was done in 6 well replicates. After incubation of 24, 48, and 72 hours, 20 μL of 5 g/L MTT was added to each well and the plates were further incubated at 37° C. for 4 hours. Following discarding the supernatant, 200 μL of dimethyl sulfoxide (DMSO) was added to each well and the plates were shaken sufficiently as so to dissolve the crystals. Absorbance (A) of the wells at 490 nm was measured. These measurements then are used to calculate the percentage inhibition of cell growth: percentage inhibition=1−[…]×100%, where TA refers to the average absorbance of treatment group, and CA refers to the average absorbance of control group.
Background: Tetrazolium dyes change colour on reduction, which living cells bring about.

Read-outs that look alike come from different tables or passages of the source.

Regarding `Nc1ccn(C[C@@H](CO)OCP(=O)(O)O)c(=O)n1` [Cidofovir], the inhibition at 25000 µg/mL is, setting by setting: (24 hours) 32.2 ± 2.08%; (48 hours) 48.6 ± 3.5%; (72 hours) 58.1 ± 3.21%.
